Data set [1] can be described thus: Chemical stability on purification and isolation. Conditions: purification by normal and reverse-phase chromatography. The data set is classed as physicochemical.
Data set [2] concerns the target T1, CXCR1 (Homo sapiens, UniProt P25024).
T1 construct: expressed in transfected cells; membranes
T1 sequence (P25024 1-350): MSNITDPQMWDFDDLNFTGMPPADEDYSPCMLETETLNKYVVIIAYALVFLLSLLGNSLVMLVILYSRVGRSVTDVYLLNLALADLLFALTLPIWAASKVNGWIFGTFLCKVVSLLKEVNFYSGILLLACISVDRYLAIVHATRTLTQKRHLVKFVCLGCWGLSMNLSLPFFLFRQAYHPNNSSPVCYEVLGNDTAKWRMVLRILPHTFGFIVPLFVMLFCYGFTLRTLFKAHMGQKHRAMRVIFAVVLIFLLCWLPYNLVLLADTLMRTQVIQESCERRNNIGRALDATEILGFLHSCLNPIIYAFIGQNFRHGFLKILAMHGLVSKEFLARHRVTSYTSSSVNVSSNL
Description: CXCR1-NanoLuc NanoBRET saturation binding in membranes. The conditions noted are these: result in words. On the procedure:
NanoBRET assays were carried out in OptiPlate-384 white well microplates (product number: 6007290, PerkinElmer LAS Ltd., UK) and used 25 mM HEPES, 1% DMSO, 0.1 mg/mL Saponin, 0.2 mg Pluronic acid F127, 1 mM MgCl2 and 0.1% BSA (pH 7.4) assay buffer. Both saturation and competition assays employed 1 μg/well HEK 293 SNAP-CXCR2-NanoLuc or SNAP-CXCR1-NanoLuc cell membranes for characterization of fluorescent ligand binding and employed 100 nM or 10 μM R-navarixin (2) to define non-specific binding (NSB). […] Membranes were incubated with furimazine at a 1/660 dilution for 5 min prior to addition to the assay plate, allowing for equilibration of luminescence output. NanoBRET was monitored every 15 s for 60 min at 37 °C measuring Nanoluciferase output (450 nm) and BODIPY 630–650 output (630 nm [610-LP filter]), generating a BRET ratio (630 nm/450 nm), using a BMG PHERAstar FS (BMG Labtech). Collected data was converted to specific binding measurements through subtraction of NSB data and analyzed by endpoint saturation analysis, allowing determination of ligand dissociation constant (KD) through [drawing 1] 1
On the technique in general: Bioluminescence resonance energy transfer reports proximity on the nanometre scale.

For data set [3], the system named is SNAP-tagged CXCR2-tsNanoLuc HEK293. The data set can be described thus: Live cell imaging of fluorescent ligand binding to SNAP-tagged CXCR2-tsNanoLuc HEK293. The data set is classed as cell-based, human. Conditions: 1 μM 11a, 10 min at 37 °C, specific, displaced by 10 μM 2. On the procedure: HEK 293 cells expressing SNAP-CXCR2-tsNanoLuc were seeded on black, clear bottom, poly-D-lysine-coated 96-well plates (Greiner 655097) at a density of 30,000 cells/well and allowed to grow overnight. Post-incubation, growth media were replaced with Hepes balances salt solution supplemented with 0.1% BSA (HBSS +0.1% BSA), 0.1 μM SNAP-surface AF488, 2 μg/mL Hoechst 33342 nuclear stain (H33342), and either HBSS +0.1% BSA or 10 μM (R)-navarixin (2).

These results are taken from paper PMC10544029, “Design, Synthesis, and Application of Fluorescent Ligands Targeting the Intracellular Allosteric Binding Site of the CXC Chemokine Receptor 2” (Journal of Medicinal Chemistry, 2023).

Regarding `CC[C@@H](Nc1c(Nc2cccc(C(=O)N(C)CCNC(=O)OCC3c4ccccc4-c4ccccc43)c2O)c(=O)c1=O)c1ccc(C)o1` [10b, (9H-Fluoren-9-yl)methyl(R)-(2-(2-hydroxy-N-methyl-3-((2-((1-(5-methylfuran-2-yl)propyl)amino)-3,4-dioxocyclobut-1-en-1-yl)amino)benzamido)ethyl)carbamate], in data set [1], the chemical stability result was “chemically unstable”.
Take `CC[C@@H](Nc1c(Nc2cccc(C(=O)NCCNC(=O)CNC(=O)CCCCCNC(=O)COc3ccc(/C=C/C4=[N+]5C(=Cc6ccc(-c7cccs7)n6[B-]5(F)F)C=C4)cc3)c2O)c(=O)c1=O)c1ccc(C)o1` [11c, (R,E)-N-(2-(2-(6-(2-(4-(2-(5,5-Difluoro-7-(thiophen-2-yl)-5H-4λ4,5λ4-dipyrrolo[1,2-c:2′,1′-f][1,3,2]diazaborinin-3-yl)vinyl)phenoxy)acetamido)hexanamido)acetamido)ethyl)-2-hydroxy-3-((2-((1-(5-methylfuran-2-yl)propyl)amino)-3,4-dioxocyclobut-1-en-1-yl)amino)benzamide]: the CXCR1 specific binding result in data set [2] was “no CXCR1 specific binding”.
With `CC[C@@H](Nc1c(Nc2cccc(C(=O)NCCNC(=O)CCNC(=O)CCCCCNC(=O)COc3ccc(/C=C/C4=[N+]5C(=Cc6ccc(-c7cccs7)n6[B-]5(F)F)C=C4)cc3)c2O)c(=O)c1=O)c1ccc(C)o1` [11e, (R,E)-N-(2-(3-(6-(2-(4-(2-(5,5-Difluoro-7-(thiophen-2-yl)-5H-4λ4,5λ4-dipyrrolo[1,2-c:2′,1′-f][1,3,2]diazaborinin-3-yl)vinyl)phenoxy)acetamido)hexanamido)propanamido)ethyl)-2-hydroxy-3-((2-((1-(5-methylfuran-2-yl)propyl)amino)-3,4-dioxocyclobut-1-en-1-yl)amino)benzamide], the CXCR1 specific binding entry in data set [2] is “no CXCR1 specific binding”.
`CC[C@@H](Nc1c(Nc2cccc(C(=O)NCCNC(=O)CCCCCNC(=O)COc3ccc(/C=C/C4=[N+]5C(=Cc6ccc(-c7cccs7)n6[B-]5(F)F)C=C4)cc3)c2O)c(=O)c1=O)c1ccc(C)o1` [11a, (R,E)-N-(2-(6-(2-(4-(2-(5,5-Difluoro-7-(thiophen-2-yl)-5H-4λ4,5λ4-dipyrrolo[1,2-c:2’,1’-f][1,3,2]diazaborinin-3-yl)vinyl)phenoxy)acetamido)hexanamido)ethyl)-2-hydroxy-3-((2-((1-(5-methylfuran-2-yl)propyl)amino)-3,4-dioxocyclobut-1-en-1-yl)amino)benzamide]: the CXCR1 specific binding entry in data set [2] is on record as “no CXCR1 specific binding”. Moreover, in data set [3], the “fluorescent labelling of cells” value was “both cell surface and intracellular endosomal fluorescent labelling”.
